Results as given in PubChem BioAssay AID1963963 (Molecular Pharmacology Branch, DTP, NCI, 2024).

Test system: 958667-338-R-J2-PDC tumor spheroids viability
Test: Anticancer human tumor 958667-338-R-J2-PDC patient-derived colon adenocarcinoma cell line growth inhibition [PI3K]
Conditions: spheroids with HUVEC and MSC; for IC50: curve of first compound; for viability, T/C: stronger effect = lower value
Description: Combinatorial screen of targeted agents with the PI3K inhibitors inavolisib, alpelisib, duvelisib, and copanlisib in multi-cell type tumor spheroids
A high-throughput screen of multi-cell type tumor spheroids was designed to identify active combinations of targeted small molecules and PI3K pathway inhibitors. Complex spheroids include a stromal component modeled by human endothelial cells (HUVEC) and fibroblasts modeled by human mesenchymal stem cells (MSCs). The concentration ranges selected for each drug and investigational agent were based upon clinically achievable concentrations if the clinical Cmax of the agent was known.
Compounds. The drugs and investigational agents: inavolisib (NSC800729), alpelisib (NSC765974), duvelisib (NSC772469), copanlisib (NSC816437), ipatasertib (NSC767898), afuresertib (NSC778305), talazoparib (NSC767125), sapanisertib (NSC764658), selumetinib (NSC741078), tovorafenib (DAY101, NSC766906), vemurafenib (NSC761431), ravoxertinib (NSC781343), sotorasib (NSC818433), MRTX1133 (NSC 836407), abemaciclib (NSC 768073), palbociclib (NSC758247), venetoclax (NSC 766270), SY5609 (NSC837396), enzalutamide (NSC755605), and darolutamide (NSC825331), were obtained from the National Cancer Institute (NCI) Developmental Therapeutics Program Chemical Repository. The FDA-approved anticancer drug set is available from the NCI Developmental Therapeutics Program. […] The stock solutions were prepared in dimethyl sulfoxide (DMSO, Sigma-Aldrich, St. Louis, MO, cat. D2650) at 800-fold the tested concentration and stored at -70 degrees C prior to their use. All drugs and investigational agents were tested over a range starting from a high concentration at or near the clinical Cmax and decreasing in half-log increments. If the clinical Cmax for an agent had not been determined, the highest concentration tested was 10 microM.
Cell Culture. All cells were maintained in an incubator at 37 degrees C and 5% CO2 with 95% humidity. The PDC lines were cultured according to standard operating procedures established by the NCI PDMR (https://pdmr.cancer.gov/sops/default.htm). All PDCs were thawed and cultured in Matrigel-coated flasks prepared with a working solution of 1X Ham's F-12 nutrient mix, without supplementation (Invitrogen, Waltham, MA, cat. 11765054), 100 U/mL penicillin-streptomycin (Invitrogen, cat. 15140122), and 2.5% Matrigel (Corning Inc., Corning, NY, cat. 354248) for the first three passages. The 354836-022-R-J1-PDC, 475296-252-R-J1-PDC, and 997726-040-R-J2-PDC lines were cultured in 6A media, which includes advanced DMEM/F-12 (Thermo Fisher Scientific, cat. 12634028), 10 mM HEPES (Thermo Fisher Scientific, cat. 15630080), 1X GlutaMAX supplement (Thermo Fisher Scientific, cat. 35050061), 0.1 mg/mL primocin (InvivoGen, San Diego, CA, cat. ant-pm-2), 10% defined fetal bovine serum, heat inactivated (HyClone Laboratories Inc., Logan, UT, cat. SH30070.03HI), 50% L-WRN conditioned media (ATCC, cat. CRL-3276), 1.25 mM N-Acetyl-L-cysteine (Sigma-Aldrich, cat. A9165), 10 mM nicotinamide (Sigma-Aldrich, cat. N0636), 1X B-27 supplement (Thermo Fisher Scientific, cat. 17504044), 1X N-2 supplement (Thermo Fisher Scientific, cat. 17502048), and 10 microM Y-27632 dihydrochloride (Tocris Bioscience, Bristol, United Kingdom, cat. 1254). The 624824-186-R-J2-PDC line was cultured in 6C/Colon 1B media, which includes all 6A media components plus 50 ng/mL human EGF recombinant protein (Thermo Fisher Scientific, cat. PHG0311). […]
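Note: spheroids exposed to compounds for seven days before readout.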

Question: What does the source list for CC(=O)c1c(C)c2cnc(Nc3ccc(N4CCNCC4)cn3)nc2n(C2CCCC2)c1=O + CC(Nc1ccc2c(c1)OCCn1cc(N3C(=O)OCC3C(F)F)nc1-2)C(N)=O?
Answer: IC50 (second compound 0.00316 µM): > 0.1 µM; IC50 (second compound 0.01 µM): > 0.1 µM; IC50 (second compound 0.0316 µM): > 0.1 µM; IC50 (second compound 0.1 µM): > 0.1 µM; IC50 (second compound 0.316 µM): > 0.1 µM; IC50 (second compound 1 µM): 0.018 µM; viability, T/C (second compound 0.00316 µM, first compound 0.000316 µM): 96.6%; viability, T/C (second compound 0.00316 µM, first compound 0.001 µM): 107%; viability, T/C (second compound 0.00316 µM, first compound 0.00316 µM): 101%; viability, T/C (second compound 0.00316 µM, first compound 0.01 µM): 104%; viability, T/C (second compound 0.00316 µM, first compound 0.0316 µM): 99.1%; viability, T/C (second compound 0.00316 µM, first compound 0.1 µM): 84.3%; viability, T/C (second compound 0.01 µM, first compound 0.000316 µM): 107%; viability, T/C (second compound 0.01 µM, first compound 0.001 µM): 95.7%; viability, T/C (second compound 0.01 µM, first compound 0.00316 µM): 105%; viability, T/C (second compound 0.01 µM, first compound 0.01 µM): 102%; viability, T/C (second compound 0.01 µM, first compound 0.0316 µM): 107%; viability, T/C (second compound 0.01 µM, first compound 0.1 µM): 83.8%; viability, T/C (second compound 0.0316 µM, first compound 0.000316 µM): 97.3%; viability, T/C (second compound 0.0316 µM, first compound 0.001 µM): 73.8%; viability, T/C (second compound 0.0316 µM, first compound 0.00316 µM): 78.3%; viability, T/C (second compound 0.0316 µM, first compound 0.01 µM): 90.2%; viability, T/C (second compound 0.0316 µM, first compound 0.0316 µM): 98%; viability, T/C (second compound 0.0316 µM, first compound 0.1 µM): 85.3%; viability, T/C (second compound 0.1 µM, first compound 0.000316 µM): 78.2%; viability, T/C (second compound 0.1 µM, first compound 0.001 µM): 87.4%; viability, T/C (second compound 0.1 µM, first compound 0.00316 µM): 89.2%; viability, T/C (second compound 0.1 µM, first compound 0.01 µM): 75.2%; viability, T/C (second compound 0.1 µM, first compound 0.0316 µM): 92.3%; viability, T/C (second compound 0.1 µM, first compound 0.1 µM): 58.2%; viability, T/C (second compound 0.316 µM, first compound 0.000316 µM): 61.9%; viability, T/C (second compound 0.316 µM, first compound 0.001 µM): 73%; viability, T/C (second compound 0.316 µM, first compound 0.00316 µM): 62.8%; viability, T/C (second compound 0.316 µM, first compound 0.01 µM): 65.9%; viability, T/C (second compound 0.316 µM, first compound 0.0316 µM): 56.9%; viability, T/C (second compound 0.316 µM, first compound 0.1 µM): 67.4%; viability, T/C (second compound 1 µM, first compound 0.000316 µM): 64.5%; viability, T/C (second compound 1 µM, first compound 0.001 µM): 62.8%; viability, T/C (second compound 1 µM, first compound 0.00316 µM): 47.5%; viability, T/C (second compound 1 µM, first compound 0.01 µM): 53.2%; viability, T/C (second compound 1 µM, first compound 0.0316 µM): 56.6%; viability, T/C (second compound 1 µM, first compound 0.1 µM): 37%
